Experiments:
Type in all cases: in vivo
mice SAM P 10 = experiment: Antidepressant activity: forced swimming in mice SAM; details: 10 mg/kg, first 6 minutes of forced swimming
Method: Exp. Gerontolol. 1997, […]. et al. Age-related deterioration in conditional avoidance task in the SAM-P/10 mouse, an animal model of spontaneous brain atrophy. Brain Res., 1993, v. 608, p. 266-272). To assess depressive condition the method of forced swimming was used (Porsolt R. D. et al., Behavioral despair in rats: a new model sensitive to antidepressant treatment. Europ. J. […] The mice were placed into cylinder 10 cm in diameter and 25 cm height. Cylinder was filled with water by 1⁄3 (27° C.). After unsuccessful attempts to get out of the water the animals have typical immovable posture, which is regarded as manifestation of “despair”.

rats with amnesia = experiment: Antiamnestic activity: passive avoidance response (PAR) with amnesia by maximum electric shock; details: rats with electric shock amnesia, 24 hours after learning
Method: White nondescript male rats with body weight 250-280 g were used in the experiments. Each dose level was studied in 10 animals. Control animals received equivalent volume of distilled water. Nooglutyl was used as reference agent. Study compounds were administered intraperitoneally 40 minutes before the experiment. Experiment was carried out on the standard automated unit for passive avoidance response (Passive Avoidance) supplied by Lafayette Instrument Co., (USA) (Ader et al. Retention of a passive avoidance response as a function of the intensity and duration of electric shock. Psycho Sci. 1972, v. 26, p. 125-128; Voronina T. A. et al. “Textbook for Experimental (Preclinical Study) of novel pharmacological compounds”. Moscow, Medicina. 2005, p. 253-263 and 308-320). The unit was designed as small platform situated 1 m above the floor, which was illuminated with special lamp, and dark chamber with electrode floor connected with the platform. The rat was placed on illuminated platform in front of the entry to the dark chamber with its tail directed to the entry; the animal preferred dark chamber and quickly ran into it. In the dark chamber the animal received single pain stimulus with electric current (0.45 mA) and memorized that it was dangerous to enter dark chamber. Duration of the stimulus was determined from the running out of the animal from the dark chamber. To achieve amnesia maximum electric shock was used (50 Hz, 0.2 sec), which was made through corneal electrodes immediately after learning. Electric shock caused obliteration of the memory trace. Test for reproduction of passive avoidance response (PAR) (for retention of memory trace) was performed 24 hours after learning session and electric shock. The animal was placed on illuminated platform once again, and time of the presence on illuminated platform and dangerous dark chamber (no current was conducted to the floor during reproduction of PAR).
Control trained animals with reproduction of PAR without electric shock preferred to stay on illuminated platform. Obliteration of training with electric shock causes amnesia in the animals; as a result, the animals with short latent period enter dark chamber and stay there considerably longer than animals without amnesia (Table 2).

[1] = system: mice exposed to hypoxia in hermovolume; experiment: Hypoxia with hypercapnia in hermovolume
Method: (§1) White nondescript male mice with body weight 22-28 g were used in the experiments. Each dose level was studied in 10 animals. Control animals received equivalent volume of distilled water. Nooglutyl was used as reference agent. Study compounds were administered intraperitoneally 40 minutes before the experiment.
(§2) Acute hypobaric hypoxia was simulated in flow-exhaust chamber. Pressure was measured with altimeter, and elevation speed with variometer. The animals were “elevated” at the speed 20 m/s to the stage at 11000 m. The exposure lasted 10 minutes. Then the animals were mover down to the baseline level for 5 minutes. Hypoxia with hypercapnia in hermovolume was created by placement of the animal into 200 ml hermetically sealed glass vessels. Life period of the animals under hypoxic conditions was recorded. Each group comprised 10 animals.

[2] = system: mice exposed to hypobaric hypoxia; experiment: Acute hypobaric hypoxia in flow-exhaust chamber
Method: as §1, §2

[3] = system: rats with hemorrhagic stroke; experiment: Hemorrhagic stroke: reproduction of passive avoidance response; details: Nimodipin at 01.mg/kg
From the text: White nondescript male rats with body weight 200-250 g, which lived in vivarium and had feed (standard palletized feed) and water ad libitum, with natural alternation of day and night, were used in the experiments. Hemorrhagic stroke (local cerebral hemorrhage) was simulated according to method by A. N. Makarenko et al. (Method of local hemorrhage simulation I various structures of the brain in experimental animals. Journal Visshei Nervnoy Deyatelnosti—Journal of Higher Nervous Activities, 2002, v. 52, No 6, p. 765-768). In nembutal-anesthetized rats (40 mg/kg, i.m.) destruction of the brain tissue in capsule interna area was made with the use of special device (mandarin-knife) followed by application of blood (0.02-0.03 ml) taken from under the rat's tongue to the damaged area (within 2-3 minutes). False-operated animals underwent scalping and craniotomy. The animals were divided into 5 groups: intact rats, false-operated rats, animals with hemorrhagic stroke received nooglutyl at 20 mg/kg, and animals with hemorrhagic stroke received Compound I at 20 mg/kg. Effects were recorded within 24 hours and 14 days after the surgery. Learning ability and memory of the rats was examined in the model of passive avoidance response (PAR, Passive Avoidance supplied by Lafayette Instrument Co., USA). To determine neurological deficit in the animals Stroke-index McGrow scale modified by I. V. Gannushkina (Functional architectonics of the brain, Moscow, Medicina, 1977, 224 p.) was used. The severity of the condition was determined by the sum of the points. The number of rats with mild symptoms up to 2.5 points of Stroke-index scale (apathy, weakness of the extremities, unilateral semiptosis, tremor, circus movements) and severe manifestations of neurological disorders (3 to 10 points)—paresis of the extremities, palsy of low extremities, lateral position. The animals received single dose of nooglutyl and Compound I at the same dose 20 mg/kg intraperitoneally within 3-3.5 hours after the surgery. Controlled animals were treated with saline. At onset of the experiment each group comprised 15-20 animals. Mortality of the rats was recorded throughout the observation period (14 days). Statistical analysis was made using parametrical and non-parametrical methods and Biostat software. Nimodipin administered at 01.mg/kg according to above scheme was considered as a standard.

[4] = 30 mg/kg intraperitoneally 40 minutes before the experiment
[5] = 60 mg/kg intraperitoneally 40 minutes before the experiment
[6] = 120 mg/kg intraperitoneally 40 minutes before the experiment
[7] = PAR reproduction within 24 hours
[8] = PAR reproduction within 14 days

| SMILES | Period of active behaviour (mice SAM P 10) | Time of presence of animals while PAR reproduction (seconds) in the dark chamber (rats with amnesia; 25 mg/kg intraperitoneally) | Time of presence of animals while PAR reproduction (seconds) on the illuminated platform (rats with amnesia; 25 mg/kg intraperitoneally) | Time of presence of animals while PAR reproduction (seconds) in the dark chamber (rats with amnesia; 50 mg/kg intraperitoneally) | Time of presence of animals while PAR reproduction (seconds) on the illuminated platform (rats with amnesia; 50 mg/kg intraperitoneally) | Life interval of mice (minutes) exposed to hypoxia in hermovolume [1, 4] | Life interval of mice (minutes) exposed to hypoxia in hermovolume [1, 5] | Life interval of mice (minutes) exposed to hypoxia in hermovolume [1, 6] | Life interval of mice (minutes) exposed to hypobaric hypoxia [2, 4] | Life interval of mice (minutes) exposed to hypobaric hypoxia [2, 5] | Latent period of entry to dark chamber (c) [3, 7] | Number of animals, which did not enter dark chamber (%) [3, 7] | Latent period of entry to dark chamber (c) [3, 8] | Number of animals, which did not enter dark chamber (%) [3, 8] |
| --- | --- | --- | --- | --- | --- | --- | --- | --- | --- | --- | --- | --- | --- | --- |
| CN(C)CCC=C1c2ccccc2CCc2ccccc21 [Amitryptilin, reference compound] | 225.10 ± 25.19 s |  |  |  |  |  |  |  |  |  |  |  |  |  |
| O=C([O-])CC[C@H](NC(=O)c1cncc(O)c1)C(=O)[O-].[Na+].[Na+] [Compound II, di-Na salt of N-(5-hydroxynicotinoyl)-L-glutamic acid] |  | 78.7 ± 12.3 s | 41.3 ± 11.6 s | 67.5 ± 15.1 s | 52.5 ± 12.3 s | 14.1 ± 0.71 min | 16.3 ± 0.64 min | 17.8 ± 0.69 min | 6.51 ± 0.82 min | 5.95 ± 0.84 min |  |  |  |  |
| O=C([O-])CC[C@H](NC(=O)c1cncc(O)c1)C(=O)[O-].[K+].[K+] [Compound III, di-K salt of N-(5-hydroxynicotinoyl)-L-glutamic acid] |  | 70.7 ± 9.4 s | 49.3 ± 10.1 s | 68.6 ± 7.1 s | 51.4 ± 9.8 s | 14.2 ± 0.39 min | 15.9 ± 0.45 min | 17.4 ± 0.65 min | 3.91 ± 0.63 min | 5.52 ± 0.54 min |  |  |  |  |
| COCCOC(=O)C1=C(C)NC(C)=C(C(=O)OC(C)C)C1c1cccc([N+](=O)[O-])c1 (centres unmarked) [Nimodipin] |  |  |  |  |  |  |  |  |  |  | 123.7 ± 19.6 c | 58% | 77.5 ± 32.8 c | 33$ % |
